One data set deals with SERT. Nature of the data set: Transporter inhibition in recombinant cell line, SERT. The class given is cell-based, human. The conditions noted are these: 8.3 µM DAG; recombinant cells, 3 h incubation, fluorescence dye.
The conditions of data set [1]: cited from earlier work. From the text:
Although DAG altered the neurotransmission of the VTA, the neuronal activi ... || Although DAG reduced alcohol consumption in rats of both sexes, some sex differences were evident. Specifically, after acute DAG treatment the decline in alcohol consumption was evident at the 24-h time point for males and the 4-h time point for females. Moreover, after repeated DAG treatment the decline was similar at each treatment session for males whereas it escalates over time in females.

The subject of a further data set is male and female rats. Nature of the data set: Intermittent-access alcohol drinking, repeated DAG injections. The class given is in vivo, Rcc Han Wistar rats. The note with it: for 4-h alcohol intake, overall / 24-h alcohol intake, overall: repeated DAG 1 mg/kg IP at three drinking sessions. The source says: Male and female Rcc Han Wistar rats (8–12 weeks old at arrival; Envigo, Horst, Netherlands) were used for the alcohol drinking and locomotor activity experiments as they drink alcohol to intoxicating levels. For in vivo microdialysis studies male Wistar rats (Charles River, Calco, Italy) were used as they display robust dopamine levels in NAc shell after alcohol injection. […] All rodents were allowed to habituate to the animal facility at least one week before they entered an experiment. During housing (20 °C with 50% humidity) the rodents had free access to water and standard chow (Teklad Rodent Diet; Envigo, Madison, WI, USA). These experiments were approved by the Ethics Committee for Animal Experiments (ethical numbers: 1457/18, 3276/18, 1556/18, 3348/20; Gothenburg, Sweden) and followed the ARRIVE guidelines. The sample sizes of each experiment were based on previous experience in which statistical significance has been detected. The person who conducted the experiments, and analyzed the collected data was aware of the treatment allocation. Only preset exclusion criteria were used when analyzing the data obtained in attempts to exclude confounding factors in analyzing data. In the alcohol drinking experiments leaking bottles and low alcohol consumption (<3.0 g/kg for males; <3.5 g/kg for females) were preset exclusion criteria. The preset exclusion criterion in the ex vivo HPLC-EC, ELISA, and recombinant cell line experiments was contamination of the sample. Misplaced probes, technical difficulties, and damages to the surgery area were preset exclusion criteria for the in vivo microdialysis experiment. Intra-cage male aggression was the preset exclusion criterion for the locomotor activity and CPP experiments. To minimize tentative confounding factors, the order of treatments was stratified, with treatments being mixed for each animal cage and for each apparatus used as well as balancing the alcohol intake between future treatment groups. Although each experiment only was performed once, they were separated over different laboratory days with equal data obtained between sessions.
Alcohol (95%; Solveco AB, Stockholm, Sweden) was either diluted to a 20% solution using tap water (drinking experiment) or to a 15% (w/v) solution with 0.9% NaCl. Alcohol was in the behavioral and neurochemical tests injected (intraperitoneally, IP) 5 min before the test. A dose of 1.75 g/kg was used in male mice as it causes robust locomotor stimulation and induces a CPP [37–39], and 2 g/kg was used for rats as it elevates the dopamine levels in NAc shell. DAG (Tocrise Bioscience, Bristol, UK) was dissolved in 0.9% NaCl in doses (0.25–2 mg/kg) known to reduce food intake and DAG was injected IP).
Individually housed rats had intermittent access to an alcohol (20%) bottle and a water bottle, three 24-h sessions per week, and only water bottles the remaining days. A reversed light/dark cycle was used, and the bottles were changed when the lights went out. First, the rats consumed alcohol for 10 weeks (baseline drinking), where the bottles and food were weighed daily and the body weight weekly. During treatments, the bottles and food were weighed at 4- and/or 24-h and the body weight was measured daily. In the first drinking experiment, the potential of DAG to reduce alcohol consumption was tested and therefore, vehicle or DAG (1 mg/kg) was acutely injected into male (n = 12) or female (n = 12) rats. The second drinking experiment was conducted to establish the effects of lower DAG doses on alcohol intake. Therefore, separate male (n = 18) or female (n = 18) rats, were acutely injected with lower DAG doses (0.5 or 0.25 mg/kg) or vehicle. The third alcohol drinking experiment evaluated the ability of repeated DAG injections to lower alcohol drinking. Therefore, additional male (n = 24) and female (n = 24) rats were injected with either vehicle or DAG (1 mg/kg) at three alcohol-drinking sessions. […]

[2] abbreviates: female rats, repeated DAG 1 mg/kg IP.
[3] abbreviates: female rats, n = 7 vs vehicle n = 9.
Where [4] appears, read: female rats, repeated DAG 1 mg/kg IP, drinking session 2, n = 7 vs vehicle n = 9.
Setting [5] is: female rats, repeated DAG 1 mg/kg IP, n = 7 vs vehicle n = 9.
The mark [6] stands for this setting: male rats, repeated DAG 1 mg/kg IP.
The mark [7] stands for this setting: male rats, n = 8 vs vehicle n = 8.

Take “des-acyl ghrelin (GSSFLSPEHQRVQQRKESKKPPAKLQPR; Ghrelin-28 non-acylated; UniProt Q9UBU3 24-51, looked up) [DAG, non-octanoylated form of ghrelin; purchased from Tocris (printed Tocrise Bioscience), dissolved in 0.9% NaCl]”: the “inhibition of SERT” value with SERT is “no inhibition”. The elimination pathway entry in data set [1] (ref [63], [64]) was “renal clearance has been suggested to be a major pathway for the elimination of DAG”. Further, in data set [1] (systemic DAG, ref [52]), the brain entry result is on record as “enters the brain through non-saturable transmembrane diffusion”. In the data set on male and female rats (setting [2]), the alcohol preference entry is recorded as “remained unaltered by repeated injections of DAG”, the body weight result is given as “not affected by repeated DAG treatment”, the total fluid intake entry is reported as “remained unaltered by repeated injections of DAG” and the water intake entry is “remained unaltered by repeated injections of DAG”. For the same substance, in the data set with male and female rats (setting [3]), the “4-h alcohol intake, overall” value was “overall reduced the alcohol consumption at the 4-h time point (treatment F1,14 = 9.17, P = 0.0090 **; time F2,28 = 12.63, P = 0.0001; interaction F2,28 = 1.02, P = 0.3754)” and the “24-h alcohol intake, overall” value was “An overall decline in 24-h alcohol intake was observed (treatment F1,14 = 14.72, P = 0.0018 **; time F2,28 = 2.91, P = 0.0711; interaction F2,28 = 6.43, P = 0.0051 ##)”. Also, in the data set on male and female rats (setting [4]), the “4-h alcohol intake, session 2” value was “a decrease specifically evident at alcohol drinking session 2 (P = 0.0158)” and the “4-h food intake, session 2” value is given as “The lowered food intake by DAG was found at alcohol drinking session 2 (P = 0.0475)”. Further, in the data set with male and female rats (setting [5]), the “4-h food intake, overall” value was “A lowered food intake by repeated DAG injections was observed at the 4-h (treatment F1,14 = 4.80, P = 0.0460 *; time F2,28 = 4.79, P < 0.0001; interaction F2,28 = 0.57, P = 0.5742)” and the 24-h food intake result is listed as “not at the 24-h time point (treatment F1,14 = 0.53, P = 0.4798; time F2,28 = 1.68, P = 0.2049; interaction F2,28 = 0.19, P = 0.8269)”. Besides, in the data set with male and female rats (setting [6]), the body weight entry is reported as “unchanged after repeated DAG injections”, the preference for alcohol entry is recorded as “unchanged after repeated DAG injections” and the water intake entry is “unchanged after repeated DAG injections”. In the data set with male and female rats (setting [7]), the “4-h alcohol intake, overall” value was “overall decrease in alcohol intake at the A 4-h time point (treatment F1,14 = 5.12, P = 0.0401 *; time F2,28 = 1.87, P = 0.1754; interaction F2,28 = 0.59, P = 0.5622)” and the “24-h alcohol intake, overall” value was “An overall reduction in alcohol intake was observed after DAG injections (treatment F1,14 = 1.96, P = 0.1836; time F2,28 = 3.44, P = 0.0460; interaction F2,28 = 4.34, P = 0.0228 #)”. Besides, the “total fluid intake, 24-h” value with male and female rats (male rats, repeated DAG 1 mg/kg IP, 24 h) is “overall decline in the total fluid intake at the 24-h time point (P = 0.0304)”. Also, in the data set on male and female rats (male rats, repeated DAG 1 mg/kg IP, drinking session 2, n = 8 per group), the “24-h alcohol intake, session 2” value is on record as “specifically at alcohol drinking session 2 (P = 0.0324)”. The “4-h alcohol intake, session 3” value in the data set with male and female rats (male rats, repeated DAG 1 mg/kg IP, drinking session 3, n = 8 per group) is reported as “specifically lower after DAG at alcohol drinking session 3 (P = 0.0256)”. In the data set with male and female rats (male rats, repeated DAG 1 mg/kg IP, n = 8 per group (4-h statistics)), the 4-h food intake entry is given as “did not alter the food intake at any time point (4-h: treatment F1,14 = 1.41, P = 0.2546; time F2,28 = 6.86, P = 0.0045; interaction F2,28 = 0.05, P = 0.9518”. Besides, the 24-h food intake in the data set on male and female rats (male rats, repeated DAG 1 mg/kg IP, n = 8 per group (24-h statistics)) is given as 24-h: treatment F1,14 = 0.55, P = 0.4727; time F2,28 = 13.79, P < 0.0001; interaction F2,28 = 1.03, P = 0.3707.

These data come from publication PMC11224403, “Des-acyl ghrelin reduces alcohol intake and alcohol-induced reward in rodents” (Translational Psychiatry, 2024).
